Experimental data: the supplement of paper PMC10307832

Columns and labels:
Assay in all cases: relative viability (nuclei count vs DMSO), 5 days (fraction); higher = more cells survive
NCI-H647 = system: NCI-H647
Method in brief: (§1)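 After 5 days of treatment, lung cancer cells in 1536-well plates were fixed and stained in a single step (final 0.05% Triton X-100, 1% formaldehyde, 1 ug/ml Hoechst) and their nuclei counted on 4× images. Treatment had been applied by pin tool the day after seeding as one drug alone or as a fixed anchor-drug dose with five library-drug doses (not always all listed) in √10 steps. Relative viability is the nuclei count of treated wells divided by that of vehicle wells, and values are medians of duplicate plates.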

NCI-H2347 = system: NCI-H2347
Method in brief: as §1

HCC-78 = system: HCC-78
Method in brief: as §1

LOU-NH91 = system: LOU-NH91
Method in brief: as §1

LCLC-103H = system: LCLC-103H
Method in brief: as §1

LXF-289 = system: LXF-289
Method in brief: as §1

NCI-H1793 = system: NCI-H1793
Method in brief: as §1

LCLC-97TM1 = system: LCLC-97TM1
Method in brief: as §1

NCI-H838 = system: NCI-H838
Method in brief: as §1

PC-3 [JPC-3] = system: PC-3 [JPC-3]
Method in brief: as §1

RERF-LC-KJ = system: RERF-LC-KJ
Method in brief: as §1

HARA = system: HARA
Method in brief: as §1

COR-L23 = system: COR-L23
Method in brief: as §1

LK-2 = system: LK-2
Method in brief: as §1

A-427 = system: A-427
Method in brief: as §1

UMC-11 = system: UMC-11
Method in brief: as §1

NCI-H2405 = system: NCI-H2405
Method in brief: as §1

NCI-H520 = system: NCI-H520
Method in brief: as §1

NCI-H1650 = system: NCI-H1650
Method in brief: as §1

NCI-H1651 = system: NCI-H1651
Method in brief: as §1

201T = system: 201T
Method in brief: as §1

NCI-H23 = system: NCI-H23
Method in brief: as §1

Cc1cn(-c2cc(NC(=O)c3ccc(C)c(Nc4nccc(-c5cccnc5)n4)c3)cc(C(F)(F)F)c2)cn1 [Nilotinib] + COc1cc2c(Oc3ccc(NC(=O)C4(C(=O)Nc5ccc(F)cc5)CC4)cc3F)ccnc2cc1OCCCN1CCOCC1 [Foretinib] (partner 0.25 µM)
relative viability (NCI-H647; first compound 0.001 µM): 1.09
relative viability (NCI-H647; first compound 0.003162 µM): 1.16
relative viability (NCI-H647; first compound 0.01 µM): 1.34
relative viability (NCI-H647; first compound 0.03162 µM): 0.879
relative viability (NCI-H647; first compound 0.1 µM): 0.86
relative viability (NCI-H2347; first compound 0.001 µM): 1.14
relative viability (NCI-H2347; first compound 0.003162 µM): 0.65
relative viability (NCI-H2347; first compound 0.01 µM): 0.6
relative viability (NCI-H2347; first compound 0.03162 µM): 0.77
relative viability (NCI-H2347; first compound 0.1 µM): 0.501
relative viability (HCC-78; first compound 0.001 µM): 0.636
relative viability (HCC-78; first compound 0.003162 µM): 0.65
relative viability (HCC-78; first compound 0.01 µM): 0.719
relative viability (HCC-78; first compound 0.03162 µM): 0.577
relative viability (HCC-78; first compound 0.1 µM): 0.59
relative viability (LOU-NH91; first compound 0.001 µM): 0.995
relative viability (LOU-NH91; first compound 0.003162 µM): 0.961
relative viability (LOU-NH91; first compound 0.01 µM): 0.985
relative viability (LOU-NH91; first compound 0.03162 µM): 0.935
relative viability (LOU-NH91; first compound 0.1 µM): 0.92
relative viability (LCLC-103H; first compound 0.001 µM): 0.737
relative viability (LCLC-103H; first compound 0.003162 µM): 0.86
relative viability (LCLC-103H; first compound 0.01 µM): 0.837
relative viability (LCLC-103H; first compound 0.03162 µM): 0.581
relative viability (LCLC-103H; first compound 0.1 µM): 0.67
relative viability (LXF-289; first compound 0.001 µM): 0.968
relative viability (LXF-289; first compound 0.003162 µM): 1.16
relative viability (LXF-289; first compound 0.03162 µM): 0.893
relative viability (LXF-289; first compound 0.1 µM): 0.761
relative viability (NCI-H1793; first compound 0.001 µM): 0.768
relative viability (NCI-H1793; first compound 0.003162 µM): 1.02
relative viability (NCI-H1793; first compound 0.01 µM): 0.79
relative viability (NCI-H1793; first compound 0.03162 µM): 0.542
relative viability (NCI-H1793; first compound 0.1 µM): 0.582
relative viability (LCLC-97TM1; first compound 0.001 µM): 0.902
relative viability (LCLC-97TM1; first compound 0.003162 µM): 1.05
relative viability (LCLC-97TM1; first compound 0.01 µM): 0.956
relative viability (LCLC-97TM1; first compound 0.03162 µM): 0.883
relative viability (LCLC-97TM1; first compound 0.1 µM): 0.885
relative viability (NCI-H838; first compound 0.001 µM): 1.03
relative viability (NCI-H838; first compound 0.003162 µM): 1.16
relative viability (NCI-H838; first compound 0.01 µM): 1.27
relative viability (NCI-H838; first compound 0.03162 µM): 0.91
relative viability (NCI-H838; first compound 0.1 µM): 0.949
relative viability (PC-3 [JPC-3]; first compound 0.001 µM): 1.03
relative viability (PC-3 [JPC-3]; first compound 0.003162 µM): 1.16
relative viability (PC-3 [JPC-3]; first compound 0.01 µM): 1.25
relative viability (PC-3 [JPC-3]; first compound 0.03162 µM): 0.967
relative viability (PC-3 [JPC-3]; first compound 0.1 µM): 0.863
relative viability (RERF-LC-KJ; first compound 0.001 µM): 0.967
relative viability (RERF-LC-KJ; first compound 0.003162 µM): 1.08
relative viability (RERF-LC-KJ; first compound 0.01 µM): 0.924
relative viability (RERF-LC-KJ; first compound 0.03162 µM): 0.81
relative viability (RERF-LC-KJ; first compound 0.1 µM): 0.912
relative viability (HARA; first compound 0.001 µM): 0.922
relative viability (HARA; first compound 0.003162 µM): 0.646
relative viability (HARA; first compound 0.01 µM): 0.817
relative viability (HARA; first compound 0.03162 µM): 0.811
relative viability (HARA; first compound 0.1 µM): 0.943
relative viability (COR-L23; first compound 0.001 µM): 0.853
relative viability (COR-L23; first compound 0.003162 µM): 1.28
relative viability (COR-L23; first compound 0.01 µM): 1.13
relative viability (COR-L23; first compound 0.03162 µM): 0.821
relative viability (COR-L23; first compound 0.1 µM): 0.924
relative viability (LK-2; first compound 0.001 µM): 1.02
relative viability (LK-2; first compound 0.003162 µM): 1.53
relative viability (LK-2; first compound 0.01 µM): 1.1
relative viability (LK-2; first compound 0.03162 µM): 0.905
relative viability (LK-2; first compound 0.1 µM): 0.711
relative viability (A-427; first compound 0.001 µM): 0.945
relative viability (A-427; first compound 0.003162 µM): 1.09
relative viability (A-427; first compound 0.01 µM): 1.03
relative viability (A-427; first compound 0.03162 µM): 0.792
relative viability (A-427; first compound 0.1 µM): 0.476
relative viability (UMC-11; first compound 0.001 µM): 0.896
relative viability (UMC-11; first compound 0.003162 µM): 1.18
relative viability (UMC-11; first compound 0.01 µM): 1.23
relative viability (UMC-11; first compound 0.1 µM): 1.17
relative viability (NCI-H2405; first compound 0.001 µM): 1.05
relative viability (NCI-H2405; first compound 0.003162 µM): 1.05
relative viability (NCI-H2405; first compound 0.01 µM): 1.03
relative viability (NCI-H2405; first compound 0.03162 µM): 0.956
relative viability (NCI-H2405; first compound 0.1 µM): 0.98
relative viability (NCI-H520; first compound 0.001 µM): 0.757
relative viability (NCI-H520; first compound 0.003162 µM): 1.03
relative viability (NCI-H520; first compound 0.01 µM): 0.91
relative viability (NCI-H520; first compound 0.03162 µM): 0.684
relative viability (NCI-H520; first compound 0.1 µM): 0.688
relative viability (NCI-H1650; first compound 0.001 µM): 1.09
relative viability (NCI-H1650; first compound 0.003162 µM): 1.2
relative viability (NCI-H1650; first compound 0.01 µM): 1.3
relative viability (NCI-H1650; first compound 0.03162 µM): 1.09
relative viability (NCI-H1650; first compound 0.1 µM): 1.3
relative viability (NCI-H1651; first compound 0.001 µM): 0.82
relative viability (NCI-H1651; first compound 0.003162 µM): 0.922
relative viability (NCI-H1651; first compound 0.01 µM): 1.19
relative viability (NCI-H1651; first compound 0.03162 µM): 0.761
relative viability (NCI-H1651; first compound 0.1 µM): 0.79
relative viability (201T; first compound 0.001 µM): 0.9
relative viability (201T; first compound 0.003162 µM): 1.09
relative viability (201T; first compound 0.01 µM): 1.32
relative viability (201T; first compound 0.03162 µM): 1.01
relative viability (201T; first compound 0.1 µM): 1.14
relative viability (NCI-H23; first compound 0.001 µM): 1.06
relative viability (NCI-H23; first compound 0.003162 µM): 1.13
relative viability (NCI-H23; first compound 0.01 µM): 1.02
relative viability (NCI-H23; first compound 0.03162 µM): 0.79
relative viability (NCI-H23; first compound 0.1 µM): 0.658
